{"source": "paper PMC10141604", "about": "“Small-Molecule Inhibition of Androgen Receptor Dimerization as a Strategy against Prostate Cancer” (ACS Central Science, 2023)", "key": {"[1]": {"test_system": "endogenous PSA and AR in LNCaP cells", "test": "Western blot of PSA and AR in LNCaP cells", "type": "cell-based", "conditions": "10 nM DHT, 48 h", "method": "individually, and all in the presence of 10 nM DHT and incubated for 48 h. Then, the cells were harvested, followed by separating the cell lysate using 10% SDS-PAGE and electro-transfer to a polyvinylidene fluoride (PVDF) membrane (Bio -Rad). Blocking buffer (#P0023B, Beyotime Biotechnology) were used to block the membranes. After 0.5\n(§3) h incubation at room temperature, each membrane was further incubated with specific\n(§4) Lamin B1, #AF1408, Beyotime Biotechnology) and then the corresponding secondary antibody (HRP-conjugated Goat Anti-Rabbit IgG, # D110058, Sangon Biotech). The Image J program was performed for quantitative analysis of the immunoreactive bands."}, "Solubility (statement)": {"test": "Solubility (statement)", "type": "physicochemical"}, "AR LBP": {"biological_target": "T1, AR LBP (Rattus norvegicus, UniProt P15207)", "T1 construct": "purchased Invitrogen Life Technologies A15880", "T1 sequence (P15207 651-882 limits assumed)": "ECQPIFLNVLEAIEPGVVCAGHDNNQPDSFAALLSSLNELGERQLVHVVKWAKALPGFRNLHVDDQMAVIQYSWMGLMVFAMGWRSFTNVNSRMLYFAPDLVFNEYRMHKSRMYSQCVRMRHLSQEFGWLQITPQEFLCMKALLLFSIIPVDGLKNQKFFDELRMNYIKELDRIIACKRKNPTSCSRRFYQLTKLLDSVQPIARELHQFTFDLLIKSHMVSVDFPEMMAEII", "test": "Competitive ligand-binding assay (PolarScreen AR competitor assay)", "experimental": "Competitive Ligand Binding Assay\nThe binding affinities of M17 and M17-B15 to the LBP of AR LBD were determined\nusing PolarScreen™ Androgen Receptor Competitor Assay Kit (#A15880, Invitrogen Life\nTechnologies) according to the user manual. […]"}, "[2]": {"test_system": "DHT-induced AR nuclear translocation in LNCaP cells", "test": "Nuclear and cytoplasmic fractionation, AR nuclear translocation", "type": "cell-based", "conditions": "10 μM, 10 nM DHT, 16 h", "method": "as §3, §4\nExtraction of Nuclear and Cytoplasmic Fractions\npresence of 10 nM DHT and incubated for 16 h. The NE-PER Nuclear and Cytoplasmic\nextraction of nuclear and cytoplasmic proteins according to manufacturer’s protocol."}, "AR LBD dimerization": {"biological_target": "T2, AR LBD dimerization (Homo sapiens, UniProt P10275)", "T2 construct": "LBD residues (613 -920); expressed in transfected cells; host or cells: HEK293T", "T2 sequence (P10275 613-920)": "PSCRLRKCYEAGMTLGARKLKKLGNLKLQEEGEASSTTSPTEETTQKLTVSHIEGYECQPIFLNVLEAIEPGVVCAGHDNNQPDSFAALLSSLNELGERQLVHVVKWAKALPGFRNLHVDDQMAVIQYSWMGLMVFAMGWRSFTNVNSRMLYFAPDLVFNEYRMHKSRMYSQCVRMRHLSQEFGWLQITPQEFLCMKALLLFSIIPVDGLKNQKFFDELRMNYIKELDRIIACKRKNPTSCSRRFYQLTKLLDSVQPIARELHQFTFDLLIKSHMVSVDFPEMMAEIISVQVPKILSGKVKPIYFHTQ", "test": "Acceptor photobleaching FRET microscopy assay in HEK293T cells", "type": "cell-based", "conditions": "10 μM, 10 nM DHT", "experimental": "(22.86 nM - 50 μM). After another 24 h incubation, the luciferase activities were determined by the Dual -Glo Luciferase system (#E1910, Promega) according to the […]\nAcceptor Photobleaching Fluorescence Resonance Energy Transfer (FRET) […]\nThe pCMV-cyan fluorescent protein (CFP, #D2623) and pCMV -yellow fluorescent protein (YFP, #D2716) plasmids were purchased from Beyotime Biotechnology. We constructed pCMV -YFP-(AR LBD) and pCMV -(AR LBD)-CFP by cloning human AR LBD residues (613 -920) into the fluorescent protein vector using seamless cloning kit (#C112-01, CloneExpress II, Vazyme). HEK293T (1× 10^5 cells/well) cells were cultured in 5% CSS DMEM media in 12-well plate with glass coverslips. The next day, ce lls were transfected with 400 ng pCMV -YFP-(AR LBD), 400 ng pCMV -(AR LBD) -CFP together with HG -Trans Gene TM transfection reagent (#TG-10012, Health & Gene™). Free YFP and CFP proteins were transfected together as control. […]\nThe FRET assay was then tested by Olympus FV1000 equipped with a UPlanSApo 60× /1.35 NA oil objective. CFP was detected using 405 nm excitation while YFP was excited using 515 nm at moderate laser power, and the emission was detected using a 480-495 nm bandpass emission filter and 535-565 nm bandpass emission filter, respectively.\nThe first pair of CFPbefore and YFPbefore was collected. […] The apparent FRET efficiency was calculated after background […]"}, "FL-AR^F876L/T877A": {"biological_target": "FL-AR^F876L/T877A (Homo sapiens, UniProt P10275, F877L/T878A)", "sequence (P10275 whole entry F877L/T878A)": "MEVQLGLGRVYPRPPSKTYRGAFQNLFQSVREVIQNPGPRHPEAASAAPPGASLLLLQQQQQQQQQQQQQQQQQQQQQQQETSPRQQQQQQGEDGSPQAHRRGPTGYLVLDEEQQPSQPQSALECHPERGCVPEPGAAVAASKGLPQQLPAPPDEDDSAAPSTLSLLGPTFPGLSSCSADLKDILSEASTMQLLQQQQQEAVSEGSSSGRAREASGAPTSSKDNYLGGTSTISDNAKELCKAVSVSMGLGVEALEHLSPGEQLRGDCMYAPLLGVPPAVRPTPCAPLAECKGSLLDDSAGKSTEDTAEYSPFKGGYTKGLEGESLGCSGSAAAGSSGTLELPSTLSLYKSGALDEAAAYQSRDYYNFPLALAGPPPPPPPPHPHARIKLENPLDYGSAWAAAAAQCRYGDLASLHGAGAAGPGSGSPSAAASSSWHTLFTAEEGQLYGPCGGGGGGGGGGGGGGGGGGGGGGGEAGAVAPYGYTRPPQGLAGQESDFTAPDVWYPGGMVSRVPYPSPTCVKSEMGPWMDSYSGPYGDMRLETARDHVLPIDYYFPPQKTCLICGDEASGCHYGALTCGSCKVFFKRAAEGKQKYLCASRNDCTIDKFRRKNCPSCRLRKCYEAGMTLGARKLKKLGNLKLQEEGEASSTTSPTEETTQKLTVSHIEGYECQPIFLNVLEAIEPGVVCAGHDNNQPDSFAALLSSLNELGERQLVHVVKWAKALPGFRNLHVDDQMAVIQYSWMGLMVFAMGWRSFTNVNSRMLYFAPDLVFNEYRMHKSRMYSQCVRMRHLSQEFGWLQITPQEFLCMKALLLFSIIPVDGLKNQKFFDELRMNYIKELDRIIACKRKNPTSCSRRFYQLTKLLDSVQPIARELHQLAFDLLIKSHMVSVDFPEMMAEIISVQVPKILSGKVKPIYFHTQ", "test": "Dual-luciferase reporter assay for FL-AR F876L/T877A in PC3 cells", "method": "Luciferase Reporter Assays for FL -ARF876L and FL-ARF876L/T877A\nconstructed on the basis of the human full length wild type AR plasmid pCMV -hAR\ntransfected with 70 ng/well of FL -AR plasmid together with 24 ng of ARR2PB -Luc, and 5 ng of Renilla. After 1 day incubation at 37 °C , the antagonistic models were employed"}, "PC3": {"test_system": "PC3", "test": "MTT cell viability assay, PC3", "type": "cell-based", "conditions": "72 h", "experimental": "(§1) 3-(4,5-dimethythiazol-2-yl)-2,5-diphenyl-2-H-tetrazolium bromide (MTT) colorimetric assay was employed to investigate cell viability. Cells were seeded into 96-well plates with 2-5× 10^3 cells per well (5× 10^3 cells/well for LNCaP, 22RV1, NIH-3T3, GES-1, Chang, […]\n(§2) NCI-H1299, U2OS, U87) for 1 day incubation at 37 °C. Then, the cells were treated with various concentrations of compounds (22.86 nM - 50 μM) and incubated for 72 h. Then, 10 μl MTT (5 mg/ml) was added into each well and incubated for 4 h. Afterwards, 100 μl of triplex 10% SDS-0.1% HCl-phosophate-buffered saline (PBS) solutions was added into each well and incubated for overnight. The absorbance at 570 nm was measured (Eon, Bioteck, Winooski, VT). […]"}, "22RV1": {"test_system": "22RV1", "test": "MTT cell viability assay, 22RV1", "type": "cell-based", "conditions": "72 h", "experimental": "as §1, §2"}}}
{"smiles": "CC(=O)Cc1nsc(NC(=O)c2cc(-c3cccc(C(F)(F)F)c3)oc2C)n1", "note": "[Compound M17-B15]", "values": [{"measurement": "AR levels (Western blot)", "setting": "[1]; LNCaP", "result": "does not affect"}, {"measurement": "endogenous PSA production (Western blot)", "setting": "[1]; LNCaP, 0.1, 1, 10 μM", "result": "remarkably inhibited"}, {"measurement": "solubility", "setting": "Solubility (statement)", "result": "poor solubility"}, {"measurement": "binding to the conventional LBP", "setting": "AR LBP", "result": "does not target the LBP"}, {"measurement": "DHT-induced AR nuclear translocation", "setting": "[2]", "result": "inhibit"}, {"measurement": "FRET efficiency (AR LBD dimerization)", "setting": "AR LBD dimerization", "result": "lower FRET efficiency"}, {"measurement": "IC50", "setting": "FL-AR^F876L/T877A", "result": 150, "unit": "nM"}, {"measurement": "inhibition on the cell viability of PC3", "setting": "PC3", "result": "does not show obvious inhibition"}, {"measurement": "inhibition on the cell viability of 22RV1", "setting": "22RV1", "result": "does not show obvious inhibition"}]}
